Literature values as cited in article PMC4907212, “Mucosal and blood-brain barrier transport kinetics of the plant N-alkylamide spilanthol using in vitro and in vivo models” (BMC Complementary and Alternative Medicine, 2016).

Parameters: method as in PMID 19399718
Details: plasma, oral gavage in rats; cited from earlier work

## dodeca-2E,4E,8E,10E/Z-tetraenoic acid isobutylamides
  elimination half-life: 1.2 h
